Assay results from paper PMC12114750 (Pharmaceuticals, 2025).
Where two headings read alike, the source gives them in different places.

Assays:
[1] = system: HCT-15 (colorectal adenocarcinoma); test: cells; format: cell-based, human; conditions: for IC50: Homo sapiens, HCT-15, 24 h, MTT
Procedure: (§1) Breast adenocarcinoma cells (MCF-7; DSMZ: ACC 115), colon adenocarcinoma cells (HTC-15; DSMZ: CCL-225), and prostate cells (DU-145; ATCC: HRB-81) were cultured in RPMI 1640 medium.
(§2) Cells were seeded at an appropriate density to promote optimal growth, and the culture medium was replaced every 48 h. Once cells reached 80–90% confluence, subculture was performed using 0.25% trypsin-EDTA to dissociate the cells, by 2 min and put inside of chamber during 5 min, according to the protocol provided by the biobanks. The cell lines were maintained at 37 °C in a humidified incubator with 5% CO2 and 95% humidity.
(§3) Cells were seeded in 96-well plates (HepG-2: 2.5 ×10^4 cells; HCT-15: 2.5 × 10^4 cells/mL; MCF-7: 2.5 × 10^4 cells/mL; SH-SY5Y: 5.0 × 10^4 cells/mL; FL83B: 5.0 × 10^4 cell/mL; DU-145: 5.0 × 10^4 cell/mL). Cancer cell lines were exposed to compounds (100 μM) for 24 h and vehicle/controls were included to assess potential solvent interference. Cell viability was assessed using MTT assay. Then, the culture medium was removed and 100 μL of MTT (0.5 mg/mL) was added to each cell. Cells were incubated for 1 h in the dark under the same culture condition (37 °C, 5% CO2, 95% humidity). After incubation, the intracellular formazan crystals were solubilized with 100 μL DMSO and, after […], the absorbance was measured at 570 nm using a microplate reader (Synergy H1). […] Results were expressed as a percentage of control untreated cells and the half-maximal inhibitory concentration (IC50) values were determined using nonlinear regression analysis (GraphPad Prism, 8.1, GraphPad Software, San Diego, CA, USA).

[2] = system: DU-145 (prostate adenocarcinoma); test: Cytotoxicity MTT assay, DU-145; format: cell-based, human; conditions: for IC50: 24 h, MTT
Procedure: as §1, §2, §3

[3] = system: SH-SY5Y neuroblastoma cell line; test: Cytotoxicity MTT assay, SH-SY5Y; format: cell-based, human; conditions: 24 h
Procedure: (§4) Hepatocyte cells (FL83B; ATCC: CLR-2390) were cultured in F-12K medium. Human neuroblastoma (SH-SY5Y; ATCC: CRL-2266) cells were cultivated in DMEM/F12 medium. All media were supplemented with fetal bovine serum (10%) (Biowest, Riverside, MO, USA) and 1% antibiotic/antimycotic solution (Biowest, Nuaill’e, France).
as §2, §3

[4] = system: MCF-7 (breast adenocarcinoma); test: cells; format: cell-based; conditions: for IC50: Homo sapiens, MCF7, 24 h, MTT
Procedure: as §1, §2, §3

FL83B hepatocytes = test: Cytotoxicity (in vitro hepatotoxicity) MTT assay, FL83B; format: cell-based; conditions: 24 h, normal murine hepatocytes
Procedure: as §4, §2, §3

[5] = biological target: T1, Butyrylcholinesterase (from equine serum) (Equus caballus, UniProt P81908); test: biochemical; format: biochemical; conditions: for Ki: read-out: BChE Ki; for inhibition at 50 µM: read-out: BChE Inhibition (%)
T1 construct: Butyrylcholinesterase (from equine serum); purchased Sigma; host or cells: equine serum
T1 sequence (P81908 whole entry): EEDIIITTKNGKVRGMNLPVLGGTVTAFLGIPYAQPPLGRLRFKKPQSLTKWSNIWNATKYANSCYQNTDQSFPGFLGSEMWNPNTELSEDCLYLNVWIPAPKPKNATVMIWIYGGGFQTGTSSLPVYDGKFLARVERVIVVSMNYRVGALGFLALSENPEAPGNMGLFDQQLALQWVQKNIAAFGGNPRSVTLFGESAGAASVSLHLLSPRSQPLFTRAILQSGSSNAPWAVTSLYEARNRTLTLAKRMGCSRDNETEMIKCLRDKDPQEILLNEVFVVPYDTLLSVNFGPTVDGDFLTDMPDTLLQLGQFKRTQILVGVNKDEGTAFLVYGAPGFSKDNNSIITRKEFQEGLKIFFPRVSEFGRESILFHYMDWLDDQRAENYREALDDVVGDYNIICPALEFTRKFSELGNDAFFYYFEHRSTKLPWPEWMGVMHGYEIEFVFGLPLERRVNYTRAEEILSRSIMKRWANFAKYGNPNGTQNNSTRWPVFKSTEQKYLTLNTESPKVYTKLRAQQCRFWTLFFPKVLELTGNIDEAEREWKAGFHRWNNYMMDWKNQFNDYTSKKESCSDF
Procedure: (§5) The inhibitory effects of the compounds on AChE and BChE were assessed by Elman’s method.
(§6) Acetylcholinesterase (from Electrophorus electricus), Butyrylcholinesterase (from equine serum), 5,5′-dithiobis-(2-nitrobenzoic acid) (DTNB), and acetylthiocholine iodide were purchased from Sigma.
Preparation of 50 mM Tris-HCl buffer solutions: Tris(hydroxymethyl)-aminomethane (606 mg) was dissolved in bidestilled water (100 mL) and adjusted with HCl to a pH of 8.0 ± 0.1. Buffers were freshly prepared and stored in the refrigerator. AChE solution 2.005 U/mL: The enzyme (271 U/mg, 0.037 mg) was dissolved in freshly prepared buffer pH 8.0 (5 mL) containing NaN3 (0.98 mg). BChE solution 2.040 U/mL: The enzyme (7.54 U/mg, 1.353 mg) was dissolved in freshly prepared buffer pH 8.0 (5 mL) containing NaN3 (0.98 mg). DTNB solution 3 mM: DTNB (23.8 mg) was dissolved in freshly prepared buffer pH 8.0 (20 mL) containing NaCl (116.8 mg) and MgCl2 (38.0 mg). ATChI solution 15 mM: ATChI (43.4 mg) was dissolved in bidestilled water (10 mL). All solutions were stored in Eppendorf caps in the refrigerator or in the freezer, if necessary. […] The final concentrations for the enzymatic assay were obtained by diluting the stock solution with bidistilled water.
BMG Labtech Spectrostar Omega plate reader working in the slow kinetics mode and measuring the absorbance at a distinct wavelength of λ = 412 nm with center scanning mode was used for the enzymatic studies. In short, a mixture of a DTNB solution (125 µL, 3 mM in 50 mM Tris-HCl buffer, pH 8), enzyme solution (25 µL, 2 U/mL), and compounds solutions (25 µL, 3 different concentrations and water as a blank) was incubated at 30 °C for 20 min. The substrate (25 µL, [ATChI] = 0.9375 mM, 0.625 mM, […], 0.1875 mM) was added to start the enzymatic reaction. The absorbance data were recorded under a controlled temperature of 30 °C for 30 min at 1 min intervals at l = 412 nm. The relative inhibition was determined as the quotient of the slopes (compound divided by blank) of the linear ranges (10 repetitions). Galantamin was used as control substance. To determine the kinetic constants, standard linearization methods were used after applying an internal standard (Dixon/Cornish–Bowden plots) (triplicates).

[6] = biological target: T2, Acetylcholinesterase (from Electrophorus electricus) (Electrophorus electricus, UniProt O42275); test: biochemical; conditions: read-out: AChE Inhibition (%)
T2 construct: purchased Sigma
T2 sequence (O42275 24-633): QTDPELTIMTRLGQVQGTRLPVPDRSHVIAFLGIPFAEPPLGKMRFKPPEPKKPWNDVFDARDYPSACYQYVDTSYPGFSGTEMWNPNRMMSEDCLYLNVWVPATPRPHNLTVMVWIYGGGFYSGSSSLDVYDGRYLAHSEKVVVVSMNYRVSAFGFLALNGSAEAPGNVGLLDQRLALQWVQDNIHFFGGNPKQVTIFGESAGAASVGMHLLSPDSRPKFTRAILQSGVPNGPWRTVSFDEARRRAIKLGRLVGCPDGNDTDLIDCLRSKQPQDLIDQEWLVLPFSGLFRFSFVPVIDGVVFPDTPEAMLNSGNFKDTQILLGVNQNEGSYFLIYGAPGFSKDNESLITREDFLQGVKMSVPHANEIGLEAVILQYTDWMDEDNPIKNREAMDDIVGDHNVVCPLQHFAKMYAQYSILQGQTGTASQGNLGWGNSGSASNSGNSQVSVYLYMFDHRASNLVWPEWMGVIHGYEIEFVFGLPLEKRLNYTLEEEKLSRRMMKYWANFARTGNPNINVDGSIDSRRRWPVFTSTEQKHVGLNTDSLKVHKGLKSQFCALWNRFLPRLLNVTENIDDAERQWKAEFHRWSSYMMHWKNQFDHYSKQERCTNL
Procedure: as §5, §6
Preparation of 50 mM Tris-HCl buffer solutions: Tris(hydroxymethyl)-aminomethane (606 mg) was dissolved in bidestilled water (100 mL) and adjusted with HCl to a pH of 8.0 ± 0.1. Buffers were freshly prepared and stored in the refrigerator. AChE solution 2.005 U/mL: The enzyme (271 U/mg, 0.037 mg) was dissolved in freshly prepared buffer pH 8.0 (5 mL) containing NaN3 (0.98 mg). BChE solution 2.040 U/mL: The enzyme (7.54 U/mg, 1.353 mg) was dissolved in freshly prepared buffer pH 8.0 (5 mL) containing NaN3 (0.98 mg). DTNB solution 3 mM: DTNB (23.8 mg) was dissolved in freshly prepared buffer pH 8.0 (20 mL) containing NaCl (116.8 mg) and MgCl2 (38.0 mg). […]
BMG Labtech Spectrostar Omega plate reader working in the slow kinetics mode and measuring the absorbance at a distinct wavelength of λ = 412 nm with center scanning mode was used for the enzymatic studies. […] The absorbance data were recorded under a controlled temperature of 30 °C for 30 min at 1 min intervals at l = 412 nm. The relative inhibition was determined as the quotient of the slopes (compound divided by blank) of the linear ranges (10 repetitions). […]

[7] = system: differentiated SH-SY5Y neuroblastoma cells; test: Neuroprotective capacity on a Parkinson's disease cellular model (6-OHDA, MTT); conditions: 6-OHDA 100 μM, 24 h
Procedure: Only at these non-toxic concentrations (0.01–10 µM; 24 h) were the compounds subsequently tested for their neuroprotective potential in an in vitro PD damage model using differentiated SH-SY5Y neuroblastoma cells. The cells, previously differentiated to obtain a dopaminergic neuronal phenotype [52], were treated with compounds in the presence of the neurotoxin 6-OHDA (100 µM). The cells’ viability was estimated using the 3-(4,5-dimethylthiazol-2-yl)−2,5-diphenyltetrazolium bromide (MTT) assay.
Cells were differentiated to obtain dopaminergic neuronal phenotype according to [52], with slight modifications. […] At the end of the 8th day, the cytotoxicity assay was performed.
Cell viability on SH-SY5Y cells was evaluated after exposure to the compounds at 10 μM for 24 h. […] The cell viability and neuroprotective effects were assessed by a colorimetric assay based on the reduction of tetrazolium salts MTT (VWR, Solon, OH, USA) to blue formazan products, according to [61]. Saponin (Sigma-Aldrich, Steinheim, Germany) was used as a positive control for inducing cellular death. The results were expressed as a percentage of the control (untreated cells).

SMILES | IC50 [1] [µM] | IC50 ([2]; Homo sapiens, DU-145) [µM] | IC50 ([3]; Homo sapiens, SH-SY5Y) [µM] | IC50 [4] [µM] | IC50 (FL83B hepatocytes; Mus musculus, FL83B) [µM] | other results
CC(=O)O[C@@H]1[C@@H](OCc2ccccc2)[C@@H](CN=[N+]=[N-])O[C@H]1n1ccc(=O)[nH]c1=O [Compound 9, 1-(2-O-Acetyl-5-azido-3-O-benzyl-5-deoxy-β-D-xylofuranosyl)uracil] | > 100 | > 100 | > 100 | > 100 |  | 
N.N.[Cl][Pt][Cl] [Cisplatin, reference compound] |  |  |  |  |  | IC50 [2]: > 100 µM; IC50 [3]: 13.9 µM; IC50 (FL83B hepatocytes): 25.7 µM
CC(=O)O[C@@H]1[C@@H](OCc2ccccc2)[C@@H](CN=[N+]=[N-])O[C@H]1n1cnc2ncnc(Cl)c21 [Compound 8, 7-(2-O-acetyl-5-azido-3-O-benzyl-5-deoxy-β-D-xylofuranosyl)-6-chloropurine] | > 100 | > 100 | > 100 | > 100 |  | 
CC(=O)O[C@@H]1[C@@H](OCc2ccccc2)[C@@H](CNC(=NC(=O)OC(C)(C)C)NC(=O)OC(C)(C)C)O[C@H]1n1ccc(=O)[nH]c1=O [Compound 12, 1-(2-O-Acetyl-3-O-benzyl-5-deoxy-5-[N′,N′′-bis(tert-butoxycarbonyl)]guanidino-β-d-xylofuranosyl)uracil] | 76 | > 100 | > 100 | > 100 | > 100 | cytotoxicity against HCT-15, fold higher (IC50 fold lower) than 5-fluorouracil [1]: ca. 2 fold
CC(=O)OC1C(OCc2ccccc2)C(CNC(=NC(=O)OC(C)(C)C)NC(=O)OC(C)(C)C)OC1n1cnc2c(Cl)ncnc21 [Compound 10, 9-{2-O-acetyl-3-O-benzyl-5-deoxy-5-[N′,N′′-bis(tert-butoxycarbonyl)]guanidino-β-D-xylofuranosyl}-6-chloropurine] | > 100 | 27.6 | > 100 | > 100 | 73.7 | BChE inhibitory activity, fold higher than that of galantamine [5]: ca. 10 fold; BChE type of inhibition [5]: mixed-type; Ki ([5]; competitive component): 0.89 ± 0.08 µM; inhibition at 50 µM [5]: 83.8 ± 1.3%; BChE Ki′ ([5]; uncompetitive component): 2.96 ± 0.39 µM; Ki ([5]; uncompetitive component, listed as N^9 regioisomer): 2.96 µM; inhibition at 50 µM [6]: 39.1 ± 0.9%
COc1ccc2c3c1O[C@H]1C[C@@H](O)C=C[C@@]31CCN(C)C2 [Galantamine, reference compound] |  |  |  |  |  | BChE type of inhibition [5]: competitive; inhibition at 50 µM [5]: 52 ± 0.5%
CC(=O)O[C@@H]1[C@@H](OCc2ccccc2)[C@@H](CN=[N+]=[N-])O[C@H]1n1cnc2c(Cl)ncnc21 [Compound 7, 9-(2-O-Acetyl-5-azido-3-O-benzyl-5-deoxy-β-D-xylofuranosyl)-6-chloropurine] | 72.7 | > 100 | > 100 | > 100 | 22.7 | 
CC(=O)O[C@@H]1CN(C(C)=O)C(=O)[C@H](OC(C)=O)[C@H]1OCc1ccccc1 [Compound 3, N-acetyl 2,4-di-O-acetyl-3-O-benzyl-D-xylono-1,5-lactam] | > 100 | > 100 | > 100 | > 100 |  | 
O=c1[nH]cc(F)c(=O)[nH]1 [5-Fluorouracil, reference compound] | 156 |  |  |  | > 100 | 
CC(=O)OC1C(OCc2ccccc2)C(CNC(=NC(=O)OC(C)(C)C)NC(=O)OC(C)(C)C)OC1n1cnc2ncnc(Cl)c21 [Compound 11, 7-(2-O-acetyl-3-O-benzyl-5-deoxy-5-[N′,N′′-bis(tert-butoxycarbonyl)]guanidino-β-D-xylofuranosyl)-6-chloropurine] | 64.1 | 24.5 | 12.1 | 43.7 | 24.1 | effect against DU-145 cells, fold higher than cisplatin [2]: 4 fold; BChE Ki, fold higher than that of the N^9-counterpart [5]: ca. 2 fold; BChE inhibitory activity, fold higher than that of galantamine [5]: ~4 fold; BChE type of inhibition [5]: mixed-type; Ki ([5]; competitive component): 2.34 ± 0.2 µM; inhibition at 50 µM [5]: 65.2 ± 0.9%; BChE Ki′ ([5]; uncompetitive component): 10.6 ± 1.4 µM; cytotoxicity in MCF-7 cells, fold lower than tamoxifen [4]: 1.6 fold; inhibition at 50 µM [6]: 34.6 ± 1.4%
NCCc1cc(O)c(O)cc1O [Compound 6-OHDA, 6-hydroxydopamine] |  |  |  |  |  | reduction of differentiated SH-SY5Y cells' viability [7]: 40%; viable cells, 6-OHDA alone ([7]; MTT, % of control): 61.3 ± 1.4 % of viable cells
